Converted amounts (≈) assume the structure as drawn.
What was measured:
[1] = system: Clostridium difficile (strain VPI 10463 (ATCC-43255)); experiment: Mouse model of Clostridium difficile infection, disease-associated phenotypes; assay type: in vivo
Method: This experiment was conducted to analyze the effects of glycan therapeutics in a mouse model of Clostridium difficile infection (Chen et al, 2008, A Mouse Model of Clostridium difficile—Associated Disease. Gastroenterology 135(6), 1984-1992). In this model, normal mice were exposed to an antibiotic regimen that renders them susceptible to C. difficile infection and disease symptoms, similar with respect to their development and manifestation of human clinical disease. In humans, the disease is most often the result of exposure to broad spectrum antibiotics which is thought to result in intestinal dysbiosis and subsequent increased colonic colonization with C. difficile. The increased bio-burden of C. difficile leads to toxin production by the bacterium and colonic inflammation. Clinical manifestations in humans include diarrhea, weight loss, intestinal inflammation, fever and dehydration. The clinical incidence of C. difficile infection and disease is about 750,000 cases per year in the US.
(§1) Mice (female C57BL/6, 8-10 weeks old, 16-18 grams each; Harlan Laboratories, Indianapolis, Ind.) were housed in groups of 3 per cage, with 4 cages per treatment group. Mice were exposed to a cocktail of antibiotics in their drinking water for a period of 9 days, starting on day −14, fourteen days before Clostridium difficile challenge on day 0. The antibiotic cocktail consisted of 1% glucose, kanamycin (0.5 mg/ml), gentamicin (0.044 mg/ml), colistin (1062.5 U/ml), metronidazole (0.269 mg/ml), ciprofloxacin (0.156 mg/ml), ampicillin (0.1 mg/ml) and vancomycin (0.056 mg/ml). Three days prior to Clostridium difficile challenge (on Day −3), mice received a single dose of clindamycin (10 mg/kg) in a volume of 0.5 mL distilled water by oral gavage (PO) (see Table 10). All chemicals were purchased from Sigma-Aldrich Corp. (St. Louis, Mo.). On day 0, mice were challenged with Clostridium difficile (strain VPI 10463 (ATCC-43255)) spores at approximately 4.5 log10 spores per mouse, PO, in a dose volume of 0.5 mL distilled water.
Disease-associated phenotypes were recorded for a duration of ten days starting on the day of Clostridium difficile challenge (on day 0) through day 10. The phenotypes, including lethargy, hunched posture and ruffled coat, wet tail/abdomen and hypothermia were scored from 0 to 4: Normal=0; Lethargic=1; Lethargic+Hunched=2; Lethargic+Hunched+Wet tail/abdomen (diarrhea)=3; and Lethargic+Hunched+Wet tail/abdomen+Hypothermic=4. Death (day 0 to day 10 or 11) and weight (day 1 to day 7 and day 10) of the animals was also monitored and recorded.
In these studies, all animals with wet tail/abdomen (diarrhea; clinical score of “3”) progressed to death. Diarrhea is an indication of colonic inflammation and hemorrhage and is a contributing factor to the weight loss seen in rodent models of C. difficile colonization/infection.
A treatment's ability to protect animals from death through day 6 in these experiments indicates disease prevention, e.g., in a human.
In addition, carriage of Clostridium difficile spores, which is indicative of Clostridium difficile gut colonization in both mice and humans, was assessed daily from day 0 to day 6. For spore CFU enumeration, fecal pellets from the mice were suspended in 50% ethanol in phosphate-buffered saline (PBS) and vortexed. […]
Effects of treatments was assessed by comparing the disease-associated phenotypes in glycan-treated, untreated (plain water) and vancomycin-treated groups. […]

[2] = system: gut microbiota; experiment: Mouse model of Clostridium difficile infection, gut microbiota 16S rRNA sequencing; assay type: in vivo; details: Day 6; predicted from 16S rRNA sequencing using PICRUST
Method: as §1
To determine how the gut microbiota composition responds to treatment with glycan therapeutics, 16S rRNA sequencing of fecal pellets on the V4 variable region using standard protocols from the Earth Microbiome Project was performed (www.earthmicrobiome.org/emp-standard-protocols/). […]

[3] = 25° C., reported by Sigma-Aldrich; cited from earlier work

Row | Structure (SMILES) | animals died by day 10 ([1]; PO gavage QD days 0 to 4) [%] | animals survived to day 7 ([1]; PO gavage QD days 0 to 4) [%] | clinical score of survivors (0 to 4) ([1]; after treatments were discontinued, through day 10 or 11) | C. difficile spores in the feces ([1]; days 0-6) | clinical signs on day 10 ([1]; mouse, in vivo) | predicted functional potential of the gut microbiome to convert primary bile acids to secondary bile acids [2] | aqueous solubility [3] [mg/mL] | aqueous solubility as Brix [3] [Brix]
1 | CN[C@H](CC(C)C)C(=O)N[C@H]1C(=O)N[C@@H](CC(N)=O)C(=O)N[C@H]2C(=O)N[C@H]3C(=O)N[C@H](C(=O)N[C@H](C(=O)O)c4cc(O)cc(O)c4-c4cc3ccc4O)[C@H](O)c3ccc(c(Cl)c3)Oc3cc2cc(c3O[C@@H]2O[C@H](CO)[C@@H](O)[C@H](O)[C@H]2O[C@H]2C[C@](C)(N)[C@H](O)[C@H](C)O2)Oc2ccc(cc2Cl)[C@H]1O [vancomycin] | 17 | 100 | above 0 | no detectable spores | exhibited clinical signs | not observed |  | 
2 | O=C[C@H](O)[C@@H](O)[C@H](O)[C@H](O)CO [D-glucose] |  |  |  |  |  |  | 909 (≈ 5050 mM) | 48

Reference: US20170151268A1, “GLYCAN THERAPEUTICS AND RELATED METHODS THEREOF” (KALEIDO BIOSCIENCES, INC., priority 2015, published 2017)
